Results as given in USRE39707E1, “Camptothecin derivatives” (Catholic Healthcare West, priority 2001, dated 2007).

Experiments:
[1] = system: C3H/HeJ mice; conditions: maximum tolerated dose at day 40, C3H/HeJ mice
[2] = system: VM46; experiment: Cell colony formation assay, VM46 cells; assay type: cell-based; conditions: 72 hours drug exposure
[3] = system: PC-3; experiment: Cell colony formation assay, PC-3 cells; assay type: cell-based, human; conditions: 72 hours drug exposure
[4] = system: MTG-B mouse mammary Adenocarcinoma; experiment: In vivo efficacy in C3H/HeJ mice bearing MTG-B tumors; conditions: for T (Surviving days after treatment of MTG-B mouse mammary Adenocarcinoma In C3H/Hej mice): i.p., control mice survived 6 days; for CD/Taxol: ratio of extra days of survival with compound to extra days of survival with taxol, each compared to control; for T/C %: surviving days treated / surviving days control x 100%, control 6 days
Experimental: This example provides directions for performing in vivo efficacy tests of the compounds of the invention on C3H/HeJ mice bearing MTG-B tumors.
Studies on the compounds of this invention were performed on C3H/HeJ mice bearing […] tumors. […] Treatment was initiated at that time, with the first day of treatment designated as day 0 for calculation and plots. The mice were injected i.p. with thee drug dose levels (⅓, ½, 1×MTD) using both a single injection and the schedule of Q2D×3 (every 2 days for a total of 3 treatments at ⅓ MTD). Control groups of mice bearing 8 mm diameter tumors were treated with vehicle alone. […] When a tumor reached 1.5 g, the mouse bearing the tumor was euthanized. Surviving days measured from day 0 for mice treated with anticancer drugs (T) and surviving days measured from day 0 for control mice (C) were recorded. Tumor growth inhibition values (T/C %) were calculated using the formula T/C %=(surviving days of mice treated with an anticancer drug T/surviving days of control mice C)×100%, as shown in Table II.
The final right-hand column in Table II provides a ratio of the extra days of survival of mice treated with the compounds of the invention (compared to control) to the extra days of survival of mice treated with taxol (compared to control).

[5] = system: HCT116; experiment: Cell colony formation assay, HCT116 cells; assay type: cell-based, human; conditions: 72 hours drug exposure

SMILES	In Vivo Toxicity MTD40 (ip, mg/kg) in C3H/Hej Mice [1] [mg/kg]	In vitro efficacy: Survival (%) of cells line VM46 ([2]; 1 nM) [%]	In vitro efficacy: Survival (%) of cells line VM46 ([2]; 10 nM) [%]	In vitro efficacy: Survival (%) of cells line PC-3 ([3]; 1 nM) [%]	In vitro efficacy: Survival (%) of cells line PC-3 ([3]; 5 nM) [%]	T (Surviving days after treatment of MTG-B mouse mammary Adenocarcinoma In C3H/Hej mice) [4] [days]	CD/Taxol [4]	T/C % [4] [%]	In Vitro Efficacy: Survival (%) of HCT116 ([5]; 1 nM) [%]	In Vitro Efficacy: Survival (%) of HCT116 ([5]; 10 nM) [%]	In Vitro Efficacy: Survival (%) of HCT116 ([5]; 100 nM) [%]
CCC1(OC(=O)COc2ccc3c(c2)OCO3)C(=O)OCc2c1cc1n(c2=O)Cc2cc3ccccc3nc2-1 (centres unmarked) [Example 000419, Camptothecin-20-O-ester of 3,4-methylenedioxyphenoxyacetic acid]	45	75.46	0	88.43	43.94	12	2.0	200	100	0	0
CC[C@@]1(OC(=O)CO[C@@H]2C[C@H](C)CC[C@H]2C(C)C)C(=O)OCc2c1cc1n(c2=O)Cc2cc3ccccc3nc2-1 [Example 0002031, Camptothecin-20-O-ester of (−)-menthoxyacetic acid]	100	74.84	0	100	69.44	12	2.0	200	100	0	0
CC(=O)O[C@H]1C(=O)[C@@]2(C)[C@H]([C@H](OC(=O)c3ccccc3)[C@]3(O)C[C@H](OC(=O)[C@H](O)[C@@H](NC(=O)c4ccccc4)c4ccccc4)C(C)=C1C3(C)C)[C@]1(OC(C)=O)CO[C@@H]1C[C@@H]2O [Taxol, reference compound]	40.6	80.59	70.82	82.80	41.36	9	–	150	86.40	0	0
